Where two headings read alike, the source gives them in different places.
Tested on: HCV replicon
Test: HCV replicon assay (NPT ELISA in HCV replicon-containing cells)
Format: cell-based
Conditions: Hepatitis C virus, 72 h
Protocol: The compounds claimed herein were tested for the ability to inhibit viral replication of the Hepatitis C replicon in cultured cells in which the HCV replicon construct has been incorporated. The HCV replicon system was described by Bartenschlager, et. al (Science, 285, pp. 110-113 (1999)). The replicon system is predictive of in vivo anti-HCV activity; compounds that are active in humans uniformly evidence activity in the replicon assay.
In this assay HCV replicon containing cells are treated with different concentrations of the test compound to ascertain the ability of the test compound to suppress replication of the HCV replicon. As a positive control, HCV replicon-containing cells are treated with different concentrations of interferon alpha, a known inhibitor of HCV replication. The replicon assay system includes Neomycin Phosphotransferase (NPT) as a component of the replicon itself in order to detect the transcription of replicon gene products in the host cell. Cells in which the HCV replicon is actively replicating have high levels of NPT; the level of NPT is proportional to HCV replication. […] The NPT level of each sample is measured using a captured ELISA.
A protocol for testing compounds for the ability to inhibit viral replication of the Hepatitis C replicon cultured cells in which the replicon construct has been incorporated, follows.
The HCV replicon contains, 5-′3′, the HCV-IRES, the neomycin phosphotransferase (neo) gene, the IRES of encephalomyocarditis virus, which directs translation of HCV sequences NS3 to NS5B, and the 3′-NTR. The sequence of the HCV replicon has been deposited in GenBank (Accession no. AJ242652).
The replicon is transfected into Huh-7 cells using standard methods such as electroporation.
The equipment and materials include, but are not limited to, Huh-7 HCV replicon-containing cells, maintenance media (DMEM (Dulbecco's modified Eagle media) supplemented with 10% FBS, L-glutamine, non-essential amino acids, penicillin (100 units/ml), streptomycin (100 micrograms/ml), and 500 micrograms/ml of Geneticin G418), screening media (DMEM supplemented with 10% FBS, L-glutamine, and non-essential amino acid, penicillin (100 units/ml) and streptomycin (100 micrograms/ml)), 96 well tissue culture plates (flat bottom), 96 well plates (U bottom for drug dilution), Interferon alpha for positive control, fixation reagent (such as methanol: acetone), primary antibody (rabbit anti-NPTII), secondary antibody: Eu-N1 l, and enhancement solution.
HCV replicon-containing cells are rinsed with once PBS once; 2 mls of trypsin is added. Cells are incubated at 37° C. in a 5% CO2 incubator for 3-5 minutes. 10 mls of complete medium is added to stop the reaction. Cells are blown gently, put into a 15 ml tube, and spun at 1200 rpm for four minutes. The trypsin/medium solution is removed and 5 mls of medium (500 ml DMEM (high glucose)) from BRL catalog #12430-054; 50 mls 10% FBS, […] (50 mg/ml, BRL 10131-035), 5 ml MEM non-essential amino acid (100×BRL #11140-050) and 5 ml pen-strep (BRL #15140-148) is added. The cells and media are mixed carefully
Cells are plated with screening medium (500 ml DMEM (BRL #21063-029), 50 ml FBS (BRL #10082-147) and 5 ml MEM non-essential amino acid (BRL #11140-050) at 6000-7500 cells/100 μl/well of 96 well plate (6-7.5×10^5 cells/10 ml/plate). Plates are placed into 37° C. 5% CO2 incubator overnight.
The following morning, drugs (test compounds or interferon alpha) are diluted in 96 well U bottom plates with media or DMSO/media, depending on the final concentration chosen for screening. Generally for 6 concentrations of each test compounds ranging from 10 micromolar to 0.03 micromolar are applied. 100 μl of the test compound dilution is placed in wells of the 96 well plate containing the HCV replicon cells. Media without drug is added to some wells as a negative controls. DMSO is known to affect cell growth. […]

[1] = HCV replicon-containing Huh-7 cells, three days incubation, read-out: EC50 for inhibition of replication of the HCV replicon
[2] = read-out: EC50 for inhibition of viral RNA replicon replication in Huh9-13 cells

SMILES | EC50 [1] | EC50 [2]
CCCCOC(=O)c1ccc(NC(=S)NC(=O)c2ccc3ccccc3c2)cc1 [Compound 1, 4-[3-(Naphthalene-2-carbonyl)-thioureido]-benzoic Acid Butyl Ester] | < 30 µM | –
CCCCOC(=O)c1ccc(NC(=S)N(C)C(=O)COc2ccccc2)cc1 [Compound 2, 4-[3-Methyl-3-(2-Phenoxy-acetyl)-thioureido]benzoic Acid Butyl Ester] | < 30 µM | –
O=C(COc1ccc(C2CC2)cc1)NC(=S)NCc1cccs1 [Compound 3, 1-(2-(4-Cylcopropylphenoxy)acetyl)-3-((thiophen-2-yl)methyl)thiourea] | < 30 µM | –
CCCCOC(=O)c1ccc(NC(=S)N(C)C(=O)COc2ccccc2C)cc1 [Compound 4, 4-[3-Methyl-3-(2-o-tolyloxy-acetyl)-thioureido]-benzoic acid butyl ester] | < 30 µM | 4.3 µM
CCCCOC(=O)c1ccc(NC(=S)N(C)C(=O)COc2cccc(C)c2)cc1 [Compound 5, 4-[3-Methyl-3-(2-m-tolyloxy-acetyl)-thioureido]-benzoic acid butyl ester] | < 30 µM | –
CCCCOC(=O)c1ccc(NC(=S)NC(=O)COc2ccc(C)cc2)cc1 [Compound 6, 4-[3-(2-p-tolyloxy-acetyl)-thioureido]-benzoic acid butyl ester] | < 30 µM | –
CCCCOC(=O)c1ccc(NC(=S)NC(=O)COc2ccc(F)cc2)cc1 [Compound 7, 4-{3-[2-(4-Fluoro-phenoxy)-acetyl]-thioureido}-benzoic acid butyl ester] | < 30 µM | 3.4 µM
CCCCOC(=O)c1ccc(NC(=S)NC(=O)COc2ccc(OC)cc2)cc1 [Compound 8, 4-{3-[2-(4-Methoxy-phenoxy)-acetyl]-thioureido}-benzoic acid butyl ester] | < 30 µM | –
O=C(COc1ccccc1)NC(=S)Nc1ccc(F)cc1 [Compound 9, 1-(4-Fluoro-phenyl)-3-(2-phenoxy-acetyl)-thiourea] | < 30 µM | –
COc1cccc(NC(=S)NC(=O)COc2ccccc2)c1 [Compound 10, 1-(3-Methoxy-phenyl)-3-(2-phenoxy-acetyl)-thiourea] | < 30 µM | –
COc1ccc(NC(=S)NC(=O)COc2ccccc2)cc1 [Compound 11, 1-(4-Methoxy-phenyl)-3-(2-phenoxy-acetyl)-thiourea] | < 30 µM | –
O=C(COc1ccccc1)NC(=S)Nc1ccc(Oc2ccccc2)cc1 [Compound 12, 1-(2-Phenoxyacetyl)-3-(4-phenoxyphenyl)thiourea] | < 30 µM | –
O=C(COc1ccccc1)NC(=S)Nc1ccc(OCc2ccccc2)cc1 [Compound 13, 1-(4-Benzyloxy-phenyl)-3-(2-phenoxy-acetyl)-thiourea] | < 30 µM | –
O=C(COc1ccccc1)NC(=S)Nc1ccc(-c2ccccc2)cc1 [Compound 14, 1-Biphenyl-4-yl-3-(2-phenoxy-acetyl)-thiourea] | < 30 µM | –
O=C(COc1ccccc1)NC(=S)Nc1ccc(C2CCCCC2)cc1 [Compound 15, 1-(4-Cyclohexyl-phenyl)-3-(2-phenoxy-acetyl)-thiourea] | < 30 µM | –
O=C(COc1ccccc1)NC(=S)Nc1ccc(N2CCCCC2)cc1 [Compound 16, 1-[(4-piperidine-1-yl)-phenyl]-3-(2-phenoxy-acetyl)-thiourea] | < 30 µM | –
CCN(CC)c1ccc(NC(=S)NC(=O)COc2ccccc2)cc1 [Compound 17, 1-(4-(Diethylamino)-phenyl)-3-(2-phenoxy-acetyl)-thiourea] | < 30 µM | –
O=C(COc1ccccc1)NC(=S)Nc1cccc(Oc2ccccc2)c1 [Compound 18, 1-(2-phenoxy-acetyl)-3-(3-phenoxy-phenyl)-thiourea] | < 30 µM | –
O=C(COc1ccccc1)NC(=S)Nc1cccc(OCc2ccccc2)c1 [Compound 19, 1-(3-Benzyloxy-phenyl)-3-(2-phenoxy-acetyl)-thiourea] | < 30 µM | –

SMILES | EC50 [1] | EC50 [2]
CC(=O)c1ccccc1NC(=S)NC(=O)COc1ccccc1 [Compound 20, 1-(2-Acetyl-phenyl)-3-(2-phenoxy-acetyl)-thiourea] | < 30 µM | –
O=C(COc1ccccc1)NC(=S)Nc1ccc2cc(F)ccc2c1 [Compound 21, 1-(6-Fluoro-naphthalen-2-yl)-3-(2-phenoxy-acetyl)-thiourea] | < 30 µM | –
O=C(COc1ccccc1)NC(=S)Nc1ccc2ncsc2c1 [Compound 22, 1-Benzothiazol-6-yl-3-(2-phenoxy-acetyl)-thiourea] | < 30 µM | –
O=C(COc1ccccc1)NC(=S)Nc1cnc2ccccc2c1 [Compound 23, 1-(2-Phenoxy-acetyl)-3-quinolin-3-yl-thiourea] | < 30 µM | –
N#Cc1ccc(NC(=S)NC(=O)COc2ccc(Cl)c(Cl)c2)cc1 [Compound 24, 1-(2-(3,4-dichloro-phenoxy)acetyl)-3-(4-cyanophenyl)thiourea] | < 30 µM | 12.1 µM
O=C(NC(=S)Nc1cccc(Oc2ccccc2)c1)c1ccccc1O [Compound 25, 1-(2-Hydroxy-benzoyl)-3-(3-phenoxy-phenyl)-thiourea] | < 30 µM | –
O=C(NC(=S)Nc1cccc(Oc2ccccc2)c1)c1cc2ccccc2o1 [Compound 26, 1-(Benzofuran-2-carbonyl)-3-(3-phenoxy-phenyl)-thiourea] | < 30 µM | –
O=C(NC(=S)Nc1cccc(OCc2ccccc2)c1)c1cc2ccccc2o1 [Compound 27, 1-(Benzofuran-2-carbonyl)-3-(3-benzyloxy-phenyl)-thiourea] | < 30 µM | –
O=C(NC(=S)Nc1cccc(OCc2ccccc2)c1)c1cc2ccccc2s1 [Compound 28, 1-(Benzo[b]thiophene-2-carbonyl)-3-(3-benzyloxy-phenyl)-thiourea] | < 30 µM | –
O=C(NC(=S)Nc1cccc(OCc2ccccc2)c1)c1cc2cc(F)ccc2[nH]1 [Compound 29, 1-(3-Benzyloxy-phenyl)-3-(5-fluoro-1H-indole-2-carbonyl)-thiourea] | < 30 µM | –
O=C(NC(=S)Nc1ccc(Oc2ccccc2)cc1)c1cc2cc(F)ccc2o1 [Compound 30, 1-(5-Fluoro-benzofuran-2-carbonyl)-3-(4-phenoxy-phenyl)-thiourea] | < 30 µM | –
Fc1ccc2oc(C(=S)NC(=S)Nc3ccc(Oc4ccccc4)cc3)cc2c1 [Compound 31, 1-(5-Fluoro-benzofuran-2-carbothioyl)-3-(4-phenoxy-phenyl)-thiourea] | < 30 µM | –
O=C(CCc1ccc(F)cc1)NC(=S)Nc1ccc(Oc2ccccc2)cc1 [Compound 32, 1-[3-(4-Fluoro-phenyl)-proprionyl]-3-(4-phenoxy-phenyl)-thiourea] | < 30 µM | –
O=C(COc1ccccc1)NC(=S)NC1CCC(Oc2ccccc2)CC1 (stereo not drawn) [Compound 33, 1-(2-Phenoxy-acetyl)-3-(4-phenoxy-cyclohexyl)-thiourea] | < 30 µM | –
O=C(COc1ccccc1)NC(=S)NCCc1ccccc1 [Compound 34, 1-Phenethyl-3-(2-phenoxy-acetyl)-thiourea] | < 30 µM | –
CN(CCc1ccccc1)C(=S)NC(=O)COc1ccccc1 [Compound 35, 1-Methyl-1-phenethyl-3-(2-phenoxy-acetyl)-thiourea] | < 30 µM | –
CCCCOC(=O)c1ccc(NC(=S)NC(=O)CSc2ccccc2)cc1 [Compound 36, 4-[3-(2-(Phenylsulfanyl)-acetyl)-thioureido]-benzoic acid butyl ester] | < 30 µM | 2.3 µM
O=C(COc1ccccc1)NC(=S)Nc1ccc2c(c1)OCO2 [Compound 37, 1-Benzo[1,3]dioxol-5-yl-3-(2-phenoxy-acetyl)-thiourea] | < 30 µM | –
O=C(COc1ccccc1)N1CCN(c2cccc(OCc3ccccc3)c2)C1=S [Compound 38] | < 30 µM | –
